Reference: publication PMC8205039, “Synthesis and biological evaluation of 4-phenoxy-phenyl isoxazoles as novel acetyl-CoA carboxylase inhibitors” (Journal of Enzyme Inhibition and Medicinal Chemistry, 2021)

Columns and labels:
[1] = system: A549 cells; assay: MTT assay, A549; type: cell-based; conditions: Homo sapiens, 72 h, mean ± SD (n = 3)
Experimental: (§1) The cytotoxicity of target compounds was assessed by MTT assay. Briefly, cells were seeded in 96-well plates at a density of 2500–3000 per well and incubated for 24 h in a CO2 incubator. Then, the cells were treated with candidate compounds at seven different concentrations for 72 h. At the end of treatment, the MTT reagent (5 mg/mL) was added to determine the cell viability. After 4 h of incubation, the resulting medium was removed, and 100 µL of DMSO was added to dissolve the formed formazan. Finally, the absorbance at 550 nm was measured by a microplate reader (Varioskan LUX, […]), with the IC50 values calculated using GraphPad Prism 5 software (GraphPad Software, La Jolla, CA, USA).

[2] = system: HepG2 cells; assay: MTT assay, HepG2; type: cell-based; conditions: Homo sapiens, single concentration of 10 µM (Figure S2), read-out: inhibitory rate, HepG2
[3] = system: MDA-MB-231 cells; assay: MTT assay, MDA-MB-231; type: cell-based; conditions: Homo sapiens, single concentration of 10 µM (Figure S2), read-out: inhibitory rate, MDA-MB-231
[4] = system: A549 cells; assay: MTT assay, A549; type: cell-based; conditions: Homo sapiens, single concentration of 10 µM (Figure S2), read-out: inhibitory rate, A549
[5] = biological target: T1, hACC1 (Homo sapiens, UniProt Q13085); assay: ACC inhibitory assay (ADP-Glo luminescent ADP detection); type: biochemical; conditions: for inhibition at 0.1 µM: hACC1, 0.1 μM, mean of two independent experiments (Table 2), read-out: IRs (%) 0.1 μM; for IC50: hACC1, mean ± SD
T1 construct: purchased BPS Biosciences 50200
Experimental: The hACC1 inhibitory activity of target compounds was evaluated using the ADP-Glo^TM kinase assay according to our previous report. In brief, 4.5 µL of working solution containing recombinant ACC1 (BPS Biosciences, 50200) and 0.5 µL of diluted compound solution were added to a 384-well Optiplate plate (Perkin Elmer, 6007290, PerkinElmer, Waltham, MA, USA), and incubated at room temperature for 15 min. Then, 5 µL of substrate mixture was added to the 384-well plate to start the reaction. After incubating for 60 min at room temperature, 10 µL of ADP-Glo reagents were added to the 384-well plate, and incubated for another 40 min to deplete the remaining ATP. Finally, 20 µL of kinase detection reagents were added to the plate and incubated for 40 min to convert ADP to ATP. The luminescent signal of ATP was determined using an Envision multifunction reader (Perkin Elmer, 2104–0010, PerkinElmer, Waltham, MA, USA). The IC50 values were calculated using GraphPad Prism 5 software (GraphPad Software, La Jolla, CA, USA).

[6] = system: MDA-MB-231 cells; assay: Cell-cycle assay (PI flow cytometry); type: cell-based, human; conditions: 48 h
Experimental: MDA-MB-231 cells were seeded on 6-well plates (3 × 10^4 cells/well) and incubated with indicated concentrations of 6g (0.75, 1.5, and 3 µM) and 6l (0.1, 0.2, and 0.4 µM) for 48 h in a 5% CO2 incubator. Then, the cells were collected by trypsinization and centrifugation, followed by fixing in 70% pre-cooled ethanol overnight. Finally, the cells were stained with PI/RNase A according to the manual and measured by flow cytometer (Facs Canto II, Becton Dickinson, San Jose, CA’, USA)[35].

[7] = system: MDA-MB-231 cells; assay: Cell apoptosis assay (Annexin V-FITC/PI flow cytometry); type: cell-based, human; conditions: 48 h
Experimental: MDA-MB-231 cells were plated on 6-well plates (3 × 10^4 cells/well) and incubated with various concentrations of 6g (0.75, 1.5, and 3 µM) and 6l (0.1, 0.2, and 0.4 µM) for 48 h. Then, cells were harvested by trypsinization and centrifugation, followed by staining with annexin-V-FITC in binding buffer for 15 min protected from light. Subsequently, the cells were stained with PI, and the proportion of apoptotic cells was measured by flow cytometer (Facs Canto II, Becton Dickinson, San Jose, CA, USA)[36].

[8] = system: HUVEC; assay: Cell viability of non-cancerous HUVEC; type: cell-based, human; conditions: 10 μM
Experimental: (§2) To investigate the selectivity of the synthesised compounds towards cancer cells, the non-cancerous HUVEC cell line was selected for testing.
as §1

[9] = Cell viability of non-cancerous HUVEC; type: cell-based, human; conditions: human, HUVEC cells (non-cancerous)
Experimental: as §2, §1

[10] = system: MDA-MB-231 cells; assay: MTT assay, MDA-MB-231; type: cell-based; conditions: Homo sapiens, 72 h, mean ± SD (n = 3)
Experimental: as §1

[11] = system: intracellular malonyl-CoA levels in MDA-MB-231 cells; assay: Measurement of malonyl-CoA levels (Elisa); type: cell-based, human; conditions: maximum test concentration, 48 h
Experimental: MDA-MB-231 cells were seeded on 6-well plates and treated with various concentrations of 6g and 6l for 48 h. Cells were collected, washed with PBS, and lysed with 1% Triton X-100. The lysates were centrifuged at 4 °C for 15 min. The malonyl-CoA levels were determined using Elisa assay kits (Ruixin Biotech, Beijing, China).

[12] = system: HepG2 cells; assay: MTT assay, HepG2; type: cell-based; conditions: Homo sapiens, 72 h, mean ± SD (n = 3)
Experimental: as §1

SMILES	IC50 [1] [µM]	inhibition at 10 µM [2] [%]	inhibition at 10 µM [3] [%]	inhibition at 10 µM [4] [%]	inhibition at 0.1 µM [5] [%]	IC50 [5] [µM]	IRs towards HUVEC [8]	viability at 72 h, 10 µM [9] [%]	melting point [°C]	IC50 [10] [µM]	reduction of intracellular malonyl-CoA levels compared to the control group [11] [%]	IC50 [12] [µM]	other results
CC(NC(=O)Cc1ccccc1)c1cc(-c2ccc(Oc3ccccc3)cc2)no1 (centres unmarked) [Compound 6l, N-(1-(3-(4-Phenoxyphenyl)isoxazol-5-yl)ethyl)-2-phenylacetamide]	0.22 ± 0.07	> 80	> 80	> 80	37.9	0.279 ± 0.0131	less than 20%	89.5 ± 3.21	164.5 to 165.5	0.21 ± 0.01	~25.85	0.26 ± 0.02	cells at G0/G1 phase ([6]; 0.1 μM): 71.79%; cells at G2/M phase ([6]; 0.1 μM): 12.01%; cells at S phase ([6]; 0.1 μM): 16.20%; cells at G0/G1 phase ([6]; 0.2 μM): 76.79%; cells at G2/M phase ([6]; 0.2 μM): 8.79%; cells at S phase ([6]; 0.2 μM): 14.42%; cells at G0/G1 phase ([6]; 0.4 μM): 81.93%; cells at G2/M phase ([6]; 0.4 μM): 5.32%; cells at S phase ([6]; 0.4 μM): 12.76%; Q2 (upper right quadrant, late apoptotic cells) ([7]; 0.4 μM): 17.50%; Q3 (bottom right quadrant, early apoptotic cells) ([7]; 0.4 μM): 12.20%
CC(=O)NC(C)c1cc(-c2ccc(Oc3ccc(OCC4CC4)cc3)cc2)no1 (centres unmarked) [Compound 6g, N-(1-(3-(4-(4-(Cyclopropylmethoxy)phenoxy)phenyl)isoxazol-5-yl)ethyl)acetamide]	1.1 ± 0.12	> 80	> 80	> 80	51.4	0.0998 ± 0.0037	less than 20%	87.3 ± 6.19	131.5 to 132.5	1.5 ± 0.58	~23.59	1.73 ± 0.55	cells at G0/G1 phase ([6]; 0.75 μM): 69.37%; cells at G2/M phase ([6]; 0.75 μM): 12.01%; cells at S phase ([6]; 0.75 μM): 18.62%; cells at G0/G1 phase ([6]; 1.5 μM): 73.66%; cells at G2/M phase ([6]; 1.5 μM): 10.51%; cells at S phase ([6]; 1.5 μM): 15.83%; cells at G0/G1 phase ([6]; 3 μM): 79.97%; cells at G2/M phase ([6]; 3 μM): 9.96%; cells at S phase ([6]; 3 μM): 10.08%; total percentage of the early and late apoptotic cells ([7]; 0.75 μM): 8.34%; total percentage of the early and late apoptotic cells ([7]; 1.5 μM): 13.83%; total percentage of the early and late apoptotic cells ([7]; 3 μM): 20.25%
